Measurements taken from paper PMC9318782, “Assessments of Ceanothanes Triterpenes as Cholinesterase Inhibitors: An Investigation of Potential Agents with Novel Inspiration for Drug Treatment of Neurodegenerative Diseases” (Metabolites, 2022).
Like-named read-outs stand apart in the source and are kept apart here.

How the values were obtained:
AChE from human blood = biological target: T1, AChE from human blood (Homo sapiens, UniProt P22303); assay: biochemical; settings: AChE obtained from human blood samples; Ellman; read-out: IC50 ± SEM, AChE hb
T1 construct: the enzyme extracted from human blood; from tissue; host or cells: human whole blood, erythrocytes lysed with Triton X-100
T1 sequence (P22303 32-617 isoform P22303-2 limits assumed): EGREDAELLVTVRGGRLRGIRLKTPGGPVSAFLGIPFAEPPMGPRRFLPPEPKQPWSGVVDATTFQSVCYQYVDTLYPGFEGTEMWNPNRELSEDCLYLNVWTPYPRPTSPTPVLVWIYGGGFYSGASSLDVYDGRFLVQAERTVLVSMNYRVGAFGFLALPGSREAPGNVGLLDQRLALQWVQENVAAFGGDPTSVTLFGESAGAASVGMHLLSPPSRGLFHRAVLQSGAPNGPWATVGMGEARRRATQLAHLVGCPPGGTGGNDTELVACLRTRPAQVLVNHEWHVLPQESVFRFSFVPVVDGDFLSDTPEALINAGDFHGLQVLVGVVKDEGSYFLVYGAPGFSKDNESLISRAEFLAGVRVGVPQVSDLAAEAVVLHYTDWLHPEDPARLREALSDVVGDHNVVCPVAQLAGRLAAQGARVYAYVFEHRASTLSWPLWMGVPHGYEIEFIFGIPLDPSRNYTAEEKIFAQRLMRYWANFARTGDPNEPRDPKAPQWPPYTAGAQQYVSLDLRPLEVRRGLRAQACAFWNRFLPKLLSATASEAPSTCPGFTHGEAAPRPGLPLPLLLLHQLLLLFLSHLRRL
Method: (§1) The Ellman assay was used to test acetylcholinesterase (AChE from Electrophorus electricus, and human blood) and butyrylcholinesterase (BChE from equine serum) inhibition activity. Human blood was drawn using sterilized syringes and stored in BD Vacutainer tubes with heparin as an anticoagulant at 4 °C for 1 h. To lyse the erythrocytes, 1 mL of a 1:50 dilution of the blood sample was prepared with the non-ionic detergent triton X-100. A mixture of the DTNB (125 μL), enzyme solution (25 μL), and compound solution (25 μL) was prepared and incubated at room temperature for 20 min. All the assays were under 0.1 M KH2PO4/K2HPO4 buffer, pH 8.0. The substrate was added to start the enzymatic reaction. […] All measurements were performed fivefold as triplicate. The compounds were assayed in a dilution interval of 15 to 500 μg/mL. […] The percentage of inhibition was determined as follows: I(%)=(1−Aprobe/Ablank)100

[1] = biological target: T2, butyrylcholinesterase (BChE from equine serum) (Equus caballus, UniProt P81908); assay: Ellman assay, BChE inhibition; type: biochemical
T2 construct: butyrylcholinesterase (from equine serum) were purchased from Sigma-Aldrich; purchased Sigma-Aldrich; host or cells: equine serum
T2 sequence (P81908 whole entry): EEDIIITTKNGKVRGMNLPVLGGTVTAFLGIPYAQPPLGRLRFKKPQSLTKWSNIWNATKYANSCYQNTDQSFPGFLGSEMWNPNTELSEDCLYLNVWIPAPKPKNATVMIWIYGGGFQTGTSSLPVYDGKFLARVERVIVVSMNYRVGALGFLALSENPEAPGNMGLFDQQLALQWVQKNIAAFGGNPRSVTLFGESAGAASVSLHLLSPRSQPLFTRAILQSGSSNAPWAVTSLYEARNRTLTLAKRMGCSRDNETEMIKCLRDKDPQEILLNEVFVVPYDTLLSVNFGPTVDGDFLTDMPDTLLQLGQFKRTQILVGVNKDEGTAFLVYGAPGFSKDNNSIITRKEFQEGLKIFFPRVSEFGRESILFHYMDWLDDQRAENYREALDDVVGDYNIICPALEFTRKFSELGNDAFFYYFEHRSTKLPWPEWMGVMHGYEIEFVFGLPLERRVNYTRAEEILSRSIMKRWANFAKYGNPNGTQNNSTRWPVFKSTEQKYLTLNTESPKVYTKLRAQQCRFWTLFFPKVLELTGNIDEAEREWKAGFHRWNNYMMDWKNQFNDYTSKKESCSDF
Method: as §1

PAS of EeAChE = biological target: T3, PAS of EeAChE (Electrophorus electricus, UniProt O42275); assay: Propidium iodide displacement assay; type: binding; settings: 0.25 h, read-out: % Displacement of Propidium Iodide
T3 construct: purchased Sigma-Aldrich
T3 sequence (O42275 24-633): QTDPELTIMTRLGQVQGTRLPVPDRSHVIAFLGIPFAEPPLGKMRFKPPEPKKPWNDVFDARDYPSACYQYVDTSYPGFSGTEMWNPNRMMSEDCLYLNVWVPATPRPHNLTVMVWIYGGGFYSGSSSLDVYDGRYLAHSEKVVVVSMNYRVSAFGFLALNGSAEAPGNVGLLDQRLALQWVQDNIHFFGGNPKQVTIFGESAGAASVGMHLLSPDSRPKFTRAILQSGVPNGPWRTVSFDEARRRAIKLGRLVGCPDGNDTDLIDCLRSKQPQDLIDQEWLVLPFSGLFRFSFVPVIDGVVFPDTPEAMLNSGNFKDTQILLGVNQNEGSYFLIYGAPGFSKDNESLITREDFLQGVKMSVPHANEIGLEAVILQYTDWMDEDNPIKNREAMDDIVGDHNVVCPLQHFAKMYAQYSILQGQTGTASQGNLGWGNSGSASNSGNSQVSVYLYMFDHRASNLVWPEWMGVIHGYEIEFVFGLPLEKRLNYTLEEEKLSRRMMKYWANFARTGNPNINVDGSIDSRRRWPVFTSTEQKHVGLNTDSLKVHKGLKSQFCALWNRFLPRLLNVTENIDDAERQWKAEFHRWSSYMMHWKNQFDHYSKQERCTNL
Method: […] Propidium iodide is known for ability to specifically binding to the PAS region of AChE.
The percentage inhibition was calculated by the following expression: 100-(IFi/IF0 × 100), where IF1 and IF0 correspond to fluorescence intensities with and without the test compound, respectively. Each assay was carried out in triplicate.

AChE [2] = biological target: T4, AChE (Electrophorus electricus, UniProt O42275); assay: biochemical; type: biochemical; settings: for Inhibition Type: Lineweaver-Burk and Dixon plots
T4 sequence (O42275 24-633): as above
Method: To investigate the inhibition mechanism of the tested compounds on AChE, a kinetic analysis was performed. The experiments were carried out using a combination of four substrate concentrations and three inhibitor concentrations with the view to obtain a double reciprocal plot (Lineweaver–Burk), in which each point is the mean of three different experiments. A parallel control with no inhibitor in the mixture allowed adjusting activities to be measured at various times.

[3] = biological target: T5, AChE from Electrophorus electricus (Electrophorus electricus, UniProt O42275); assay: biochemical; settings: AChE from Electrophorus electricus (commercial enzyme); Ellman; Table 1; read-out: IC50 ± SEM, AChE
T5 construct: purchased Sigma-Aldrich
T5 sequence (O42275 24-633): as above
Method: The Ellman assay was used to test acetylcholinesterase (AChE from Electrophorus electricus, and human blood) and butyrylcholinesterase (BChE from equine serum) inhibition activity. Human blood was drawn using sterilized syringes and stored in BD Vacutainer tubes with heparin as an anticoagulant at 4 °C for 1 h. To lyse the erythrocytes, 1 mL of a 1:50 dilution of the blood sample was prepared with the non-ionic detergent triton X-100. A mixture of the DTNB (125 μL), enzyme solution (25 μL), and compound solution (25 μL) was prepared and incubated at room temperature for 20 min. All the assays were under 0.1 M KH2PO4/K2HPO4 buffer, pH 8.0. The substrate was added to start the enzymatic reaction. […] All measurements were performed fivefold as triplicate. The compounds were assayed in a dilution interval of 15 to 500 μg/mL.

AChE [4] = biological target: T4, AChE; settings: cited from earlier work; for IC50: read-out: IC50, AChE inhibitory activity
[5] = alkaloids from Esenbeckia leiocarpa ref 40

Structure (SMILES)	IC50 (AChE from human blood) [nM]	IC50 [1] [nM]	inhibition at 0.75 µM (PAS of EeAChE) [%]	inhibition at 1.5 µM (PAS of EeAChE; 1.5 µM compound, EeAChE) [%]	Ki (AChE [2]) [nM]	Inhibition Type (AChE [2])	IC50 [3] [nM]	inhibition at 1.5 µM (PAS of EeAChE) [%]	Inhibition Type (AChE [2]; listed as compound 3)	IC50 (AChE [4]) [nM]	IC50 (AChE [4]; [5]) [nM]	mode of AChE inhibition (AChE [4])
C=C(C)[C@@H]1CC[C@]2(C(=O)O)CC[C@]3(C)C(CCC4[C@@]5(C)C(C=O)=CC(C)(C)C5CC[C@]43C)C12 (stereo partly shown) [Compound 1, Zizyberenalic acid]	215 ± 5	> 500000	19.7 ± 0.8	26.3 ± 1.3	46	mixed competitive mode inhibition	184 ± 0.7					
C=C(C)[C@@H]1CC[C@]2(C(=O)O)CC[C@]3(C)C(CCC4[C@@]5(C)C(C=O)C(O)C(C)(C)C5CC[C@]43C)C12 (stereo partly shown) [Compound 2, Zizyberanalic acid]	173 ± 6	> 500000			28	mixed competitive mode inhibition	150 ± 0.9	23.2 ± 0.8				
C=C(C)[C@@H]1CC[C@]2(C(=O)O)CC[C@]3(C)[C@H](CC[C@@H]4[C@@]5(C)[C@@H](C(=O)O)[C@H](O)C(C)(C)[C@@H]5CC[C@]43C)[C@@H]12 [Compound 3, Ceanothic acid]	146 ± 3	> 500000	34.2 ± 0.6	45.6 ± 1.1	55	partially competitive	125 ± 0.4		competitive and reversible			
C=C(C)[C@@H]1CC[C@]2(C(=O)O)CC[C@]3(C(=O)O)[C@H](CC[C@@H]4[C@@]5(C)C=CC(C)(C)[C@@H]5CC[C@]43C)[C@@H]12 [Compound 4, Ceanothenic acid]	219 ± 4	> 500000	20.1 ± 1	26.7 ± 1.3	22	mixed competitive mode inhibition	188 ± 0.5					
C=C(C)[C@@H]1CC[C@]2(C(=O)O)CC[C@]3(C)[C@H](CC[C@@H]4[C@@]5(C)[C@H](CO)[C@@H](O)C(C)(C)[C@@H]5CC[C@]43C)[C@@H]12 [Compound 5, Ceanothanolic acid]	181 ± 0.7	> 500000	14.5 ± 0.3	19.3 ± 1.5	56	mixed competitive mode inhibition	155 ± 0.1					
C=C(C)[C@@H]1CC[C@]2(C(=O)O)CC[C@]3(C)C(CCC4[C@@]5(C)C(C(=O)O)C(=O)C(C)(C)C5CC[C@]43C)C12 (stereo partly shown) [Compound 6, 3-oxo-ceanothic acid]	199 ± 9	> 500000	24.3 ± 0.7	40.5 ± 1.5	47	mixed competitive mode inhibition	172 ± 1.2					
C=C(C)[C@@H]1CC[C@]2(C(=O)O)CC[C@]3(C)C(CCC4[C@@]5(C)C(C(=O)O)C(OC(C)=O)C(C)(C)C5CC[C@]43C)C12 (stereo partly shown) [Compound 7, 3-O-acetyl-ceanothic acid]	207 ± 6	> 500000			50	partially competitive	179 ± 0.1	32.1 ± 1.3				
O=c1c(O)c(-c2ccccc2)oc2cc(O)cc(O)c12 [galangin]										120000		
COc1cc2nc3occc3c(OC)c2cc1OC [kokusaginine]											46000	
CCCc1cc(=O)c2ccccc2n1C [leptomerine]											2500	
C[C@H]1[C@H](C)CC[C@]2(C(=O)O)CC[C@]3(C)C(=CC[C@@H]4[C@@]5(C)CC[C@H](O)C(C)(C)[C@@H]5CC[C@]43C)[C@H]12 [ursolic acid]												competitive/non-competitive
